Source: ChEMBL document CHEMBL3861999, “Investigation of C-5 alkynyl (alkynyloxy or hydroxymethyl) and/or N-3 propynyl substituted pyrimidine nucleoside analogs as a new class of antimicrobial agents” (Bioorg Med Chem, 2016)

How the values were obtained:
Assay type in all cases: functional
Details in all cases: variant bovis BCG, 144 h, read-out: GI
[1] = tested on: Mycobacterium tuberculosis; experiment: Growth inhibition of Mycobacterium bovis BCG at 1 ug/ml after 6 days by microplate alamar blue assay
[2] = tested on: Mycobacterium tuberculosis; experiment: Growth inhibition of Mycobacterium bovis BCG at 200 ug/ml after 6 days by microplate alamar blue assay
[3] = tested on: Mycobacterium tuberculosis; experiment: Growth inhibition of Mycobacterium bovis BCG at 0.5 ug/ml after 6 days by microplate alamar blue assay

Compound	inhibition of growth at 200 µg/mL [2] [%]	other results
NNC(=O)c1ccncc1 [ISONIAZID]		inhibition of growth at 1 µg/mL [1]: 100%
C#CCOc1cn([C@@H]2O[C@H](CO)[C@@H](O)[C@H]2F)c(=O)n(CC#C)c1=O	34	
CO[C@H]1/C=C/O[C@@]2(C)Oc3c(C)c(O)c4c(O)c(c(/C=N/N5CCN(C)CC5)c(O)c4c3C2=O)NC(=O)/C(C)=C\C=C\[C@H](C)[C@H](O)[C@@H](C)[C@@H](O)[C@@H](C)[C@H](OC(C)=O)[C@@H]1C [RIFAMPIN]		inhibition of growth at 0.5 µg/mL [3]: 100%
C#CCOc1cn([C@@H]2O[C@H](CO)[C@@H](O)[C@H]2F)c(=O)[nH]c1=O	98	
